Activity calls are given as the source filed them. The rule behind the calls is not given here.
Columns and labels:
BV-2 [1] = experiment: Cytotoxicity against mouse BV-2 cells assessed as reduction in cell viability at 10 uM incubated for 24 hrs by MTT assay; assay type: toxicity, cell-based; details: bv-2, 24 h
BV-2 [2] = experiment: Inhibition of LPS-induced NO production in mouse BV-2 cells at 10 uM pre-incubated for 2 hrs followed by LPS stimulation and measured after 24 hrs by Griess reagent based method; assay type: functional, cell-based; details: time 26.0 hrs
BV-2 [3] = experiment: Inhibition of LPS-induced NO production in mouse BV-2 cells assessed as NO production at 20 uM pre-incubated for 2 hrs followed by LPS stimulation and measured after 24 hrs by Griess reagent based method relative to control; assay type: functional; set-up: scale not given: the % may be the effect or the level left; details: time 26 hrs
BV-2 [4] = experiment: Inhibition of LPS-induced NO production in mouse BV-2 cells assessed as NO production at 10 uM pre-incubated for 2 hrs followed by LPS stimulation and measured after 24 hrs by Griess reagent based method relative to control; assay type: functional; set-up: scale not given: the % may be the effect or the level left; details: time 26 hrs

SMILES | Activity (BV-2 [1]) | inhibition (BV-2 [2]) | Activity (BV-2 [3]) [%] | Activity (BV-2 [4]) [%]
C/C=C(\C)C(=O)O[C@@H]1[C@H](OC(C)=O)[C@@H]2[C@@H](OC(=O)/C(C)=C/C)[C@@]34O[C@@]2(C)COC(=O)c2cccnc2CC[C@H](C)C(=O)O[C@@H]([C@H](O)[C@H](O)[C@@]13COC(C)=O)[C@]4(C)O | Non-Toxic | Active | – | –
Oc1ccc(/C=C/c2cc(O)cc(O)c2)cc1 [RESVERATROL] | – | – | 21.38 | –
C/C=C(\C)C(=O)O[C@H]1C[C@@H]2[C@@H](OC(=O)c3ccccc3)[C@@]3(OC2(C)C)[C@@]1(COC(C)=O)[C@@H](OC(C)=O)[C@@H](OC(C)=O)C[C@]3(C)O | Non-Toxic | Active | – | 59.61
CC(=O)OC[C@]12[C@H](OC(C)=O)C(=O)[C@@H]3[C@@H](OC(C)=O)[C@@]14O[C@@]3(C)COC(=O)c1cccnc1CC[C@@](C)(OC(C)=O)C(=O)O[C@@H]([C@H](OC(=O)c1cccnc1)[C@@H]2OC(C)=O)[C@]4(C)O | Non-Toxic | – | – | –
CC(=O)OC[C@]12[C@H](OC(C)=O)[C@@H](OC(C)=O)[C@@H]3[C@@H](OC(C)=O)[C@@]14O[C@@]3(C)COC(=O)c1cccnc1[C@@H](C)[C@H](C)C(=O)O[C@@H]([C@H](OC(C)=O)[C@@H]2OC(C)=O)[C@]4(C)O | Non-Toxic | Active | – | –
C/C=C(\C)C(=O)O[C@@H]1[C@H](OC(C)=O)[C@@]2(COC(C)=O)[C@H](OC(C)=O)C(=O)[C@@H]3[C@@H](O)[C@@]24O[C@@]3(C)COC(=O)c2cccnc2CC[C@@](C)(OC(C)=O)C(=O)O[C@@H]1[C@]4(C)O | Non-Toxic | Active | – | –
CC(=O)OC[C@]12[C@H](OC(C)=O)[C@@H](OC(C)=O)[C@@H]3[C@@H](OC(C)=O)[C@@]14O[C@@]3(C)COC(=O)c1cccnc1[C@@H](C)[C@H](C)C(=O)O[C@@H]([C@H](OC(=O)c1ccc(=O)n(C)c1)[C@@H]2OC(C)=O)[C@]4(C)O | Toxic | – | – | –
CC(=O)O[C@H]1C[C@](C)(O)[C@]23OC(C)(C)[C@H](C[C@H](OC(=O)c4cccnc4)[C@]2(CO)[C@H]1OC(C)=O)[C@H]3OC(C)=O | Non-Toxic | – | – | –
C/C=C(\C)C(=O)O[C@H]1[C@@H]2[C@@H](OC(C)=O)[C@@]34O[C@@]2(C)COC(=O)c2cccnc2CC[C@@](C)(OC(C)=O)C(=O)O[C@@H]([C@H](OC(C)=O)[C@H](OC(C)=O)[C@@]3(COC(C)=O)[C@@H]1OC(C)=O)[C@]4(C)O | Non-Toxic | Active | – | –
C/C=C(\C)C(=O)O[C@@H]1[C@H](OC(C)=O)[C@@]2(COC(C)=O)[C@H](OC(C)=O)C(=O)[C@@H]3[C@@H](OC(C)=O)[C@@]24O[C@@]3(C)COC(=O)c2cccnc2CC[C@@](C)(OC(C)=O)C(=O)O[C@@H]1[C@]4(C)O | Non-Toxic | Active | – | –
CC(=O)OC[C@]12[C@H](OC(C)=O)C(=O)[C@@H]3[C@@H](OC(C)=O)[C@@]14O[C@@]3(C)COC(=O)c1cccnc1CC[C@@](C)(OC(C)=O)C(=O)O[C@@H]([C@H](OC(=O)c1ccccc1)[C@@H]2OC(C)=O)[C@]4(C)O | Non-Toxic | Active | – | –
C/C=C(\C)C(=O)O[C@H]1[C@@H]2[C@@H](OC(C)=O)[C@@]34O[C@@]2(C)COC(=O)c2cnccc2CC[C@@](C)(OC(C)=O)C(=O)O[C@@H]([C@H](OC(C)=O)[C@H](OC(C)=O)[C@@]3(COC(C)=O)[C@@H]1OC(C)=O)[C@]4(C)O | Non-Toxic | Active | – | –
C/C=C(\C)C(=O)O[C@@H]1[C@@H]2[C@@H](OC(C)=O)[C@@]34O[C@@]2(C)COC(=O)c2cnccc2CC[C@@](C)(OC(C)=O)C(=O)O[C@@H]([C@H](OC(=O)/C(C)=C/C)[C@H](OC(C)=O)[C@@]3(COC(C)=O)[C@@H]1OC(C)=O)[C@]4(C)O | Non-Toxic | Active | – | –
